Source: ChEMBL document CHEMBL1201862, “PubChem BioAssay data set” (2004)
Active and inactive are the calls of the source.

Columns and labels:
[1] = biological target: 26S proteasome non-ATPase regulatory subunit 14 (Homo sapiens, UniProt O00487); test: inhibition of proteasome subunit RPN11 – biochemical, fluorescence polarization, uHTS hits, confirmation (AID 602368); format: functional
[2] = biological target: 72 kDa type IV collagenase (Homo sapiens, UniProt P08253); test: Dose Response validation of uHTS RPN11 inhibitor hits using a MMP-2 Fluorescence assay.; format: functional
Prothrombin = Prothrombin (Bos taurus, UniProt P00735); test: thrombin inhibition, dose response, biochemical, fluorescence polarization, uHTS hits (AID 602369); format: functional
[3] = biological target: T1, Sentrin-specific protease 8 (Homo sapiens, UniProt Q96LD8); test: SENP8 protease inhibitors, SAR follow-up, biochemical, luminescence (AID 504501); format: functional
T1 sequence (Q96LD8 whole entry): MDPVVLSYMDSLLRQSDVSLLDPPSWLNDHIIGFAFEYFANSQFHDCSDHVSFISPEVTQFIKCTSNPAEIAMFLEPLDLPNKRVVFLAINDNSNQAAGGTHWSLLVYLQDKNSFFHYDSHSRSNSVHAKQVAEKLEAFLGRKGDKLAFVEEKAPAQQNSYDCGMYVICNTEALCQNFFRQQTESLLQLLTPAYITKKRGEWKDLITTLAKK

Caspase-3 = biological target: T2, Caspase-3 (Homo sapiens, UniProt P42574); test: SAR Analysis of small molecule inhibitors of Sentrin-specific proteases (SENPs) using a Caspase-3 Selectivity assay. [Related pubchem assays (depositor defined):AID2540, AID2599, AID434973, AID489001]; format: functional
T2 sequence (P42574 whole entry): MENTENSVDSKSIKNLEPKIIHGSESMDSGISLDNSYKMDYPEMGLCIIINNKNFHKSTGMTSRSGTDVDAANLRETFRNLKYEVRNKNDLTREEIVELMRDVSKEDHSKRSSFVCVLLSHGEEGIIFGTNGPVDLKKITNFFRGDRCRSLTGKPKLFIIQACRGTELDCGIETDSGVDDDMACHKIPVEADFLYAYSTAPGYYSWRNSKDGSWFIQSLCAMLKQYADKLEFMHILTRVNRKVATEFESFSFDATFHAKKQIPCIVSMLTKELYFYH

[4] = biological target: T3, Sentrin-specific protease 6 (Homo sapiens, UniProt Q9GZR1); test: SAR Analysis of small molecule inhibitors of Sentrin-specific protease 6 (SENP6) using a Luminescent assay. [Related pubchem assays (depositor defined):AID2582, AID2599]; format: functional
T3 sequence (Q9GZR1 whole entry): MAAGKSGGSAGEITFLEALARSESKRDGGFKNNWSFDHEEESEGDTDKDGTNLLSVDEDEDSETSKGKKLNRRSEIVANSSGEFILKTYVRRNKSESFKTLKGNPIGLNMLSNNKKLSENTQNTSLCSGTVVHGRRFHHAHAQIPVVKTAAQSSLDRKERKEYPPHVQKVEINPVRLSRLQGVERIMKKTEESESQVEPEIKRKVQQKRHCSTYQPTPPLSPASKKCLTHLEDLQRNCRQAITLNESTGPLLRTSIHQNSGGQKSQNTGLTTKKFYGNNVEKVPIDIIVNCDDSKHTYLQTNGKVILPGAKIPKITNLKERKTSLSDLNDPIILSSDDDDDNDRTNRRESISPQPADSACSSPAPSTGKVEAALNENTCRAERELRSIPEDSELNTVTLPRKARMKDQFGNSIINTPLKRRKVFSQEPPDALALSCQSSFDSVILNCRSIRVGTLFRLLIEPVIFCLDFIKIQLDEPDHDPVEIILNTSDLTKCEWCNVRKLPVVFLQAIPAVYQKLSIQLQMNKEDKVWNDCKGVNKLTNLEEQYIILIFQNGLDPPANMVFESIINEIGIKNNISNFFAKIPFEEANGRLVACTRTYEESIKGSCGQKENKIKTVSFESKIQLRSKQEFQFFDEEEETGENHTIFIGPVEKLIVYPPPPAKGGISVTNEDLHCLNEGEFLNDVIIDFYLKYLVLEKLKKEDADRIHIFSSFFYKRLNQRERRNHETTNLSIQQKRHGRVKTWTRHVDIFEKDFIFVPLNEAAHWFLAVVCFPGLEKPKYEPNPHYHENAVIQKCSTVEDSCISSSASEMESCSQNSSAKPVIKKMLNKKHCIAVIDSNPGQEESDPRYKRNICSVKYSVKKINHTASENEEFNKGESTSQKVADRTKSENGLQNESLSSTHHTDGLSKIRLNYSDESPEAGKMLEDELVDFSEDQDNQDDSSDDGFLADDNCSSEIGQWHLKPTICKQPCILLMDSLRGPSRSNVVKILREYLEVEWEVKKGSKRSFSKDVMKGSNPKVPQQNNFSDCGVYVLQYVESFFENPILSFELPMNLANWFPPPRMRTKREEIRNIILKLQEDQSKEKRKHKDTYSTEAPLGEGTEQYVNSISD

[5] = biological target: T4, Sentrin-specific protease 7 (Homo sapiens, UniProt Q9BQF6); test: SENP7 protease inhibitors, SAR follow-up, biochemical, luminescence (AID 504497); format: functional
T4 sequence (Q9BQF6 whole entry): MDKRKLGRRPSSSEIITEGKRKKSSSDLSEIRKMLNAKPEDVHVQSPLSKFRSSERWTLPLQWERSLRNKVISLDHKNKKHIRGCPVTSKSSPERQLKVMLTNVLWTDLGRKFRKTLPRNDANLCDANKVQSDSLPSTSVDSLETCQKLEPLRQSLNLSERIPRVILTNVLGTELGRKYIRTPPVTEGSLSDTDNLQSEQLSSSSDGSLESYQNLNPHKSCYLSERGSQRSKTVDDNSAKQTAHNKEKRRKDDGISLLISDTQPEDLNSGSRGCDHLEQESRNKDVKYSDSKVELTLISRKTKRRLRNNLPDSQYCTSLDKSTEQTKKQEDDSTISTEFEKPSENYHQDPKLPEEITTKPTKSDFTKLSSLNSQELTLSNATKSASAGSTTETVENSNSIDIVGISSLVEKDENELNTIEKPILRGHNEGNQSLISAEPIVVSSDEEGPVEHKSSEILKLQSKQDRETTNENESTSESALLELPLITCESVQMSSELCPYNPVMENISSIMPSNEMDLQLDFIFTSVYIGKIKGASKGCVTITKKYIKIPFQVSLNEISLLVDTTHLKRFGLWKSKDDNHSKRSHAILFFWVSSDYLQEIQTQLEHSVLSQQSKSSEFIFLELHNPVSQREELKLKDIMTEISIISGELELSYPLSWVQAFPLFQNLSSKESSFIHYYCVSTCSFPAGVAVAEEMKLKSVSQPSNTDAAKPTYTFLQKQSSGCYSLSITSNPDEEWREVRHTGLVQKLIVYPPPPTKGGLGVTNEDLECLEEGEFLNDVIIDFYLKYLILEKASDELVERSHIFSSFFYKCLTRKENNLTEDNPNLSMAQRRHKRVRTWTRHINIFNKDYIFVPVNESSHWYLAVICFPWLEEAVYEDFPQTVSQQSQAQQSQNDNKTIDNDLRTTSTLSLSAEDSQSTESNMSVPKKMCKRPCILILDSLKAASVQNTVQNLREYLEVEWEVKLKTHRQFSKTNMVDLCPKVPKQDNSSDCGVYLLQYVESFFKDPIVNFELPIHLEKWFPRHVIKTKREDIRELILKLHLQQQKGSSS

Nonstructural protein 1 = Nonstructural protein 1 (Influenza A virus, UniProt Q194T2); format: functional, Influenza A virus (A/California/07/2009(H1N1))
[6] = biological target: T5, High affinity choline transporter 1 (Homo sapiens, UniProt Q9GZV3); test: CHT inhibitors, dose response, cell-based, 5-point CRC, membrane potential dye (AID 504840); format: functional
T5 sequence (Q9GZV3 whole entry): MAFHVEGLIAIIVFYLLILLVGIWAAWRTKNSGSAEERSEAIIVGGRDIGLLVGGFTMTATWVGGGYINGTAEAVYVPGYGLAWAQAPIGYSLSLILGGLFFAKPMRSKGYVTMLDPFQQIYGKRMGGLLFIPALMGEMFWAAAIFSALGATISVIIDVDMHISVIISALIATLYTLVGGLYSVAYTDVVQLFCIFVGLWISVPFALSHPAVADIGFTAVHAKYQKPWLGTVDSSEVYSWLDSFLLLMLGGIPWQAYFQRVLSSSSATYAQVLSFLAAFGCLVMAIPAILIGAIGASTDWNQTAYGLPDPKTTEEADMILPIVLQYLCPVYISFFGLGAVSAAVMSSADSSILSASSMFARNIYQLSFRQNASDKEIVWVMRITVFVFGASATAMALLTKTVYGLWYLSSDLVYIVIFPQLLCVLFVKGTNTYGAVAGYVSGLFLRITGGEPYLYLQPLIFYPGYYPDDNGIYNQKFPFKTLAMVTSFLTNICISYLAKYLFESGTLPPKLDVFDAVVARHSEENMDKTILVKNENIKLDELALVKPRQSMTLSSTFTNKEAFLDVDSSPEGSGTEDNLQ

[7] = biological target: T6, Short transient receptor potential channel 4 (Mus musculus, UniProt Q9QUQ5); test: mouse TRPC4 channel activators, dose response, cell-based, HEK293 TRPC4/mu-opioid, Fluo-4 calcium (AID 434937); format: functional
T6 sequence (Q9QUQ5 whole entry): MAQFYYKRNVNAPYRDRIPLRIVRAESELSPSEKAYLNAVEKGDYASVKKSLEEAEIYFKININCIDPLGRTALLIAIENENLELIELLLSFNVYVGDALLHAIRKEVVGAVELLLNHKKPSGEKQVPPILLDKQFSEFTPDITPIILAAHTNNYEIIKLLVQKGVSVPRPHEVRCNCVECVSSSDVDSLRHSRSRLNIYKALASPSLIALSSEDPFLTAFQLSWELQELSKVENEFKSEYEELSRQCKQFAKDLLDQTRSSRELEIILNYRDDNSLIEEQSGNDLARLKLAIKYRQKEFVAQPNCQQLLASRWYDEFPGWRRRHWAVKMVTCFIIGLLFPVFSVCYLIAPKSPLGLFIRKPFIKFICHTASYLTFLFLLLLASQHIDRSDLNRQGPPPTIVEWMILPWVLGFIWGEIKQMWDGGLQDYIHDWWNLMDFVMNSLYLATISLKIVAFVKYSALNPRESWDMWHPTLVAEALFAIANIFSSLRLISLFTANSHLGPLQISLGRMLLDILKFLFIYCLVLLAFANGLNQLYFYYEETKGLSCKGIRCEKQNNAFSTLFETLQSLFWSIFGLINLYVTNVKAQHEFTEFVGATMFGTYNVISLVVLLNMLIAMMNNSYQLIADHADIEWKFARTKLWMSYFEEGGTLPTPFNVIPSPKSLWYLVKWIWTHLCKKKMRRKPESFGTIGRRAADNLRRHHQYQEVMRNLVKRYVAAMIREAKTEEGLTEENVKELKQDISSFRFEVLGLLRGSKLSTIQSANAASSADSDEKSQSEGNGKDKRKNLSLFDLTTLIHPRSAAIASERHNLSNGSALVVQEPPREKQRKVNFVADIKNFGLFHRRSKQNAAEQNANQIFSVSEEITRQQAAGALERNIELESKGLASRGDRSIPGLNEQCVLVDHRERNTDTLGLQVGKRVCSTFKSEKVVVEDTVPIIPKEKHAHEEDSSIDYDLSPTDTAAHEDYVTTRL

Melanocortin receptor 4 = Melanocortin receptor 4 (Homo sapiens, UniProt P32245); test: MC4R antagonist potency on cAMP, dose response, cell-based, TR-FRET, biased antagonists (AID 602298); format: functional;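 note: antagonist potency against agonist-stimulated cAMP production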
[8] = nonselective inhibitors of cellular cAMP signaling, dose response, counter-screen for MC4R biased antagonist project, cell-based, TR-FRET cAMP detection (AID 602305); format: functional;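 note: U2OS cells stimulated with forskolin near its EC80 as the cAMP inducer; potency is for inhibition of forskolin-stimulated cAMP signaling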

26S proteasome non-ATPase regulatory subunit 14, sequence (O00487 whole entry): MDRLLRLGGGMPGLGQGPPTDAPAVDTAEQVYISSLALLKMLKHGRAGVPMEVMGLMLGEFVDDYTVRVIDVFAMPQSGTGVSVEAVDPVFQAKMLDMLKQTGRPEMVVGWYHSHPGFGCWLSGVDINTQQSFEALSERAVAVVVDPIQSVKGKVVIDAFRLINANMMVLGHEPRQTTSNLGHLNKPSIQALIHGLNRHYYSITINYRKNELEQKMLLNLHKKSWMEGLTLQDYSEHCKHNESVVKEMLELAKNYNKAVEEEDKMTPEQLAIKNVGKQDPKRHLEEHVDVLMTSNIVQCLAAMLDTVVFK
72 kDa type IV collagenase, sequence (P08253 whole entry): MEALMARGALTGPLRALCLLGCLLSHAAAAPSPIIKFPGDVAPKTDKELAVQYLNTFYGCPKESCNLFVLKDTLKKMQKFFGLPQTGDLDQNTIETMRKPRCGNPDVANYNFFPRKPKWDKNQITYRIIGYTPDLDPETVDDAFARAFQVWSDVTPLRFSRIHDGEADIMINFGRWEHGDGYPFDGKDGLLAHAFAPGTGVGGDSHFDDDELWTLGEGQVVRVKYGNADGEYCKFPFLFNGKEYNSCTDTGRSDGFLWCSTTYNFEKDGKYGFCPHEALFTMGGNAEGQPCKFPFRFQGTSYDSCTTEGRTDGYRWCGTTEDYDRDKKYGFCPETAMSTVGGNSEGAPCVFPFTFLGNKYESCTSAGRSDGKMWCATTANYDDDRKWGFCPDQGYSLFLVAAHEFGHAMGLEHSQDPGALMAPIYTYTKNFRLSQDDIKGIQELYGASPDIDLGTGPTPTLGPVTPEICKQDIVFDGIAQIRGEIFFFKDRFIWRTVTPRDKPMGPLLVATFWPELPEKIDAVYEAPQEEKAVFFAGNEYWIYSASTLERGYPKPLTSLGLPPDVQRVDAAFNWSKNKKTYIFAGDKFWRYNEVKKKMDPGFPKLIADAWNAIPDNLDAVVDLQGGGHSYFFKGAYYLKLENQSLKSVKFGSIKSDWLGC
Nonstructural protein 1, sequence (Q194T2 whole entry): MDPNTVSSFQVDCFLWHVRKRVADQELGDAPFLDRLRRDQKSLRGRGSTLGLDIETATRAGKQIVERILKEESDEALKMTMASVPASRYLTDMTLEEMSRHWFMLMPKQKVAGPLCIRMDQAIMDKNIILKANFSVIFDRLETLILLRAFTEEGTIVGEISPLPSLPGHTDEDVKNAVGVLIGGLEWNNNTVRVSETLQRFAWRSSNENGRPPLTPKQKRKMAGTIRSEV
Melanocortin receptor 4, sequence (P32245 whole entry): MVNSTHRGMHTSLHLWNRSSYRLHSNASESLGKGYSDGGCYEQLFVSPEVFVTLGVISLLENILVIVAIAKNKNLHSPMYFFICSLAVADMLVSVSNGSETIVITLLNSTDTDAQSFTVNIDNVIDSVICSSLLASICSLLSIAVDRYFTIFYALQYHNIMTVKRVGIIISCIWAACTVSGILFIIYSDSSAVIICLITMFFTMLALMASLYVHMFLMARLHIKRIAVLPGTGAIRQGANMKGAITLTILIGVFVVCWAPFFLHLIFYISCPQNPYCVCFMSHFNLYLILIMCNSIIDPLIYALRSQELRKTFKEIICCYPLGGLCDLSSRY

Cc1nc(SCc2nc3cc(Cl)c(F)cc3[nH]2)c2oc3ccccc3c2n1
IC50 [1]: 38.1 µM (active) | IC50 [2]: > 100 µM (inactive) | IC50 (Prothrombin): 42.5 µM (active)

C(=N/Nc1cc(N2CCCCCC2)nc(N2CCCCCC2)n1)/c1ccccc1
IC50 [3]: > 99 µM (inactive) | IC50 (Caspase-3): > 99 µM (inactive) | IC50 [4]: 64.6 µM (active) | IC50 [5]: > 99 µM (inactive)

COc1cccc(-c2nn(-c3ccccc3)cc2/C=C(\C#N)C(=O)NCCCn2ccnc2)c1
IC50 (Nonstructural protein 1): 74.2 µM (active) | IC50 [6]: 10.5 µM (active) | IC50 [1]: 38.9 µM (active) | IC50 [2]: > 100 µM (inactive) | IC50 (Prothrombin): 44.4 µM (active)

CCOC(=O)c1c(C)[nH]c(C(=O)OCC(=O)N(CC(C)C)c2c(N)n(Cc3ccccc3)c(=O)[nH]c2=O)c1C
IC50 [1]: 31.8 µM (active) | IC50 [2]: > 100 µM (inactive) | IC50 (Prothrombin): 33.7 µM (active)

CN(C)S(=O)(=O)c1ccc2nc(NC(=O)c3sc4ccccc4c3Cl)sc2c1
IC50 [3]: > 99 µM (inactive) | IC50 (Caspase-3): > 99 µM (inactive) | IC50 [4]: > 99 µM (inactive) | IC50 [5]: > 99 µM (inactive)

CC(C)C1CC(CCNCc2ccc3c(c2)OCO3)(c2ccccc2)CCO1 (configuration not stated)
EC50 [7]: 5.96 µM (active) | IC50 (Melanocortin receptor 4): > 64.6 µM (inactive) | IC50 [8]: > 64.6 µM (inactive)
